Results as given in the NIST ThermoML archive (doi:10.1021/je800418m).
“And” between values parts separate entries of the source, which are not always exact repeats. Equal entries are not always repeated.

Settings: Crystal

N.O=C(O)C(F)(F)C(F)(F)C(F)(F)C(F)(F)C(F)(F)C(F)(F)C(F)(F)F [ammonium perfluorooctanoate]
Settings | vapor or sublimation pressure
318.35 K | 3e-05 kPa
318.45 K | 2e-05 kPa
318.55 K | 3e-05 kPa and 5e-05 kPa
318.75 K | 1e-05 kPa
318.85 K | 7e-05 kPa
328.25 K | 7e-05 kPa
328.35 K | 6e-05 kPa
328.45 K | 6e-05 kPa
328.65 K | 9e-05 kPa and 0.00019 kPa
328.75 K | 4e-05 kPa and 9e-05 kPa and 6e-05 kPa
328.85 K | 0.00014 kPa and 6e-05 kPa and 0.00011 kPa
333.15 K | 9e-05 kPa
333.35 K | 0.00023 kPa
333.65 K | 0.00013 kPa [middle of 4 runs]
333.75 K | 0.00021 kPa
